# What was measured:
# [1] = tested on: Blumeria graminis f. sp. hordei; test: Test Example D: Powdery mildew on barley; settings: for Test D control value class: class of control value
# Phytophthora infestans = test: whole plant or invertebrate; assay type: in vivo; settings: for Test F control value class: class of control value
# Magnaporthe grisea = test: whole plant or invertebrate; assay type: in vivo; settings: for Test A control value class: class of control value
# Botrytis cinerea = test: Test Example B: Gray mold on tomato; settings: for Test B control value class: class of control value
# [2] = tested on: Colletotrichum orbiculare; test: Test Example H: Anthracnose on cucumber; settings: for Test H control value class: Anthracnose on cucumber (Sagami Hanjiro), 2.5 ml/pot, assessed 6 to 10 days after inoculation; for Test H control value: 6 to 10 days after inoculation
# Puccinia recondita = test: Test Example E: Brown rust on wheat; assay type: in vivo; settings: for Test E control value class: class of control value
# Plasmopara viticola = test: Test Example G: Downy mildew on vine; settings: for Test G control value class: Downy mildew on vine (Neomuscat), 2.5 ml/pot, assessed 7 to 10 days after inoculation; for Test G control value: 7 to 10 days after inoculation
# Alternaia brassicicola = test: Test Example C: Alternaria sooty spot on cabbage; assay type: in vivo; settings: for Test C control value class: class of control value
# From the text: Seeds of a test plant (cabbage variety: Shikidori) were planted and cultivated until the cotyledons extended.
# <Control Value> Control value=100{1−(n/3)}
# [3] = Alternaria sooty spot on cabbage
# [4] = 250 ppm drug solution sprayed on test plant
# [5] = 250 ppm drug solution sprayed (2.5 ml/pot), cucumber Sagami Hanjiro
# [6] = 250 ppm drug solution sprayed (2.5 ml/pot), grape Neomuscat
# [7] = Powdery mildew on barley, control value class
# [8] = Late blight on tomato, control value class
# [9] = Blast on rice, control value class
# [10] = Gray mold on tomato, control value class
# [11] = Anthracnose on cucumber, 250 ppm spray
# [12] = Brown rust on wheat, control value class
# [13] = Downy mildew on vine, 250 ppm spray
# [14] = Alternaria sooty spot on cabbage, control value class
Structure (SMILES),Test D control value class ([1]; Powdery mildew on barley),Test F control value class (Phytophthora infestans; Late blight on tomato),Test A control value class (Magnaporthe grisea; Blast on rice),Test B control value class (Botrytis cinerea; Gray mold on tomato),Test H control value class ([2]; 250 ppm spray),Test E control value class (Puccinia recondita; Brown rust on wheat),Test G control value class (Plasmopara viticola; 250 ppm spray),Test C control value class (Alternaia brassicicola; [3]),further results
CCn1c(-c2c(F)cccc2F)c(C(C)O)cc(Cl)c1=O (centres unmarked) [compound 17],L (50% or less control value),H (more than 50% control value),L (50% or less control value),H (more than 50% control value),H (more than 50% control value),H (more than 50% control value),H (more than 50% control value),H (more than 50% control value),–
CCn1c(-c2c(F)cccc2OCSC)c(CC(C)C)cc(Cl)c1=O [compound 105],L (50% or less control value),L (50% or less control value),H (more than 50% control value),H (more than 50% control value),H (more than 50% control value),L (50% or less control value),H (more than 50% control value),H (more than 50% control value),–
CCn1c(-c2ccc(Cl)cc2F)c(CC(C)C)cc(Cl)c1=O [compound 158],H (more than 50% control value),L (50% or less control value),H (more than 50% control value),H (more than 50% control value),H (more than 50% control value),H (more than 50% control value),H (more than 50% control value),H (more than 50% control value),–
CCn1c(-c2c(F)cc(F)cc2F)c(C(OC)N(C)C(C)C)cc(Cl)c1=O (centres unmarked) [compound 81],L (50% or less control value),L (50% or less control value),H (more than 50% control value),H (more than 50% control value),L (50% or less control value),L (50% or less control value),L (50% or less control value),L (50% or less control value),–
CC(C)Cc1ccc(=O)n(C)c1-c1ccc(F)cc1 [compound 145],L (50% or less control value),L (50% or less control value),L (50% or less control value),L (50% or less control value),L (50% or less control value),H (more than 50% control value),L (50% or less control value),H (more than 50% control value),–
CCCc1cc(Cl)c(=O)n(CC)c1-c1c(F)cc(F)cc1F [compound 378],–,–,–,–,–,–,–,–,"Test D control value [1, 4]: H (more than 50% control value); Test F control value (Phytophthora infestans; [4]): L (50% or less control value); Test A control value (Magnaporthe grisea; [4]): H (more than 50% control value); Test B control value (Botrytis cinerea; [4]): H (more than 50% control value); Test H control value [2, 5]: H (more than 50% control value); Test E control value (Puccinia recondita; [4]): H (more than 50% control value); Test G control value (Plasmopara viticola; [6]): L (50% or less control value); Test C control value (Alternaia brassicicola; [4]): H (more than 50% control value)"
CCOC(C)(c1cc(Cl)c(=O)n(CC)c1-c1c(F)cccc1F)C(C)C (racemic) [compound 188],–,–,–,–,–,–,–,–,"Test D control value [1, 7]: H (more than 50% control value); Test F control value (Phytophthora infestans; [8]): H (more than 50% control value); Test A control value (Magnaporthe grisea; [9]): H (more than 50% control value); Test B control value (Botrytis cinerea; [10]): H (more than 50% control value); Test H control value [2, 11]: H (more than 50% control value); Test E control value (Puccinia recondita; [12]): H (more than 50% control value); Test G control value (Plasmopara viticola; [13]): H (more than 50% control value); Test C control value (Alternaia brassicicola; [14]): H (more than 50% control value)"
Cc1cc(CC(C)C)c(-c2c(F)cc(F)cc2F)n(CC(F)F)c1=O [compound 307],–,–,–,–,–,–,–,–,"Test D control value [1, 7]: H (more than 50% control value); Test F control value (Phytophthora infestans; [8]): L (50% or less control value); Test A control value (Magnaporthe grisea; [9]): L (50% or less control value); Test B control value (Botrytis cinerea; [10]): H (more than 50% control value); Test H control value [2, 11]: H (more than 50% control value); Test E control value (Puccinia recondita; [12]): H (more than 50% control value); Test G control value (Plasmopara viticola; [13]): L (50% or less control value); Test C control value (Alternaia brassicicola; [14]): H (more than 50% control value)"
CCn1c(-c2ccc(C#N)cc2)c(C(O)C(C)C)cc(Cl)c1=O (centres unmarked) [compound 233],–,–,–,–,–,–,–,–,"Test D control value [1, 7]: L (50% or less control value); Test F control value (Phytophthora infestans; [8]): L (50% or less control value); Test A control value (Magnaporthe grisea; [9]): L (50% or less control value); Test B control value (Botrytis cinerea; [10]): L (50% or less control value); Test H control value [2, 11]: L (50% or less control value); Test E control value (Puccinia recondita; [12]): L (50% or less control value); Test G control value (Plasmopara viticola; [13]): L (50% or less control value); Test C control value (Alternaia brassicicola; [14]): H (more than 50% control value)"
CCC(C)(O)c1cc(Cl)c(=O)n(C)c1-c1c(F)cc(F)cc1F (centres unmarked) [compound 505],–,–,–,–,–,–,–,–,"Test D control value [1, 4]: H (more than 50% control value); Test F control value (Phytophthora infestans; [4]): L (50% or less control value); Test A control value (Magnaporthe grisea; [4]): H (more than 50% control value); Test B control value (Botrytis cinerea; [4]): H (more than 50% control value); Test H control value [2, 5]: H (more than 50% control value); Test E control value (Puccinia recondita; [4]): H (more than 50% control value); Test G control value (Plasmopara viticola; [6]): H (more than 50% control value); Test C control value (Alternaia brassicicola; [4]): H (more than 50% control value)"
CCOC(C)(CC)c1cc(Br)c(=O)n(CC)c1-c1c(F)cc(OC)cc1F (centres unmarked) [compound 485],–,–,–,–,–,–,–,–,"Test D control value [1, 4]: L (50% or less control value); Test F control value (Phytophthora infestans; [4]): L (50% or less control value); Test A control value (Magnaporthe grisea; [4]): H (more than 50% control value); Test B control value (Botrytis cinerea; [4]): H (more than 50% control value); Test H control value [2, 5]: H (more than 50% control value); Test E control value (Puccinia recondita; [4]): H (more than 50% control value); Test G control value (Plasmopara viticola; [6]): L (50% or less control value); Test C control value (Alternaia brassicicola; [4]): H (more than 50% control value)"
CCn1c(-c2ccc(OCOC)cc2F)c(CC(C)C)cc(Cl)c1=O [compound 122],H (more than 50% control value),L (50% or less control value),H (more than 50% control value),H (more than 50% control value),H (more than 50% control value),H (more than 50% control value),H (more than 50% control value),H (more than 50% control value),–
CC(C)C(C)(O)c1cc(Br)c(=O)n(C)c1-c1c(F)cc(F)cc1F (centres unmarked) [compound 423],–,–,–,–,–,–,–,–,"Test D control value [1, 4]: H (more than 50% control value); Test F control value (Phytophthora infestans; [4]): H (more than 50% control value); Test A control value (Magnaporthe grisea; [4]): H (more than 50% control value); Test B control value (Botrytis cinerea; [4]): H (more than 50% control value); Test H control value [2, 5]: H (more than 50% control value); Test E control value (Puccinia recondita; [4]): H (more than 50% control value); Test G control value (Plasmopara viticola; [6]): H (more than 50% control value); Test C control value (Alternaia brassicicola; [4]): H (more than 50% control value)"
CC=C(C)c1cc(Cl)c(=O)n(CC)c1-c1c(F)cccc1F [compound 28],H (more than 50% control value),L (50% or less control value),H (more than 50% control value),H (more than 50% control value),H (more than 50% control value),H (more than 50% control value),H (more than 50% control value),H (more than 50% control value),–
COc1cc(F)c(-c2c(C(C)C)ccc(=O)n2C)c(F)c1 [compound 14],H (more than 50% control value),H (more than 50% control value),H (more than 50% control value),H (more than 50% control value),H (more than 50% control value),H (more than 50% control value),L (50% or less control value),H (more than 50% control value),–
CCCC1=C(c2ccc(F)cc2Cl)N(CC)C(=S)CC1 [compound 315],–,–,–,–,–,–,–,–,"Test D control value [1, 7]: H (more than 50% control value); Test F control value (Phytophthora infestans; [8]): L (50% or less control value); Test A control value (Magnaporthe grisea; [9]): L (50% or less control value); Test B control value (Botrytis cinerea; [10]): L (50% or less control value); Test H control value [2, 11]: L (50% or less control value); Test E control value (Puccinia recondita; [12]): L (50% or less control value); Test G control value (Plasmopara viticola; [13]): L (50% or less control value); Test C control value (Alternaia brassicicola; [14]): L (50% or less control value)"
